# Test results as given in US20260306460A1, “COMPOSITION FOR REMOVING AND INHIBITING SENESCENT CELLS, AND USES THEREOF” (LIFECEUTIX CO., LTD., priority 2023, published 2026).
# How the values were obtained:
# [1] = system: transplanted liver of aged mice; assay: Efficiency of liver transplantation from aged mice into young mice; format: in vivo, mouse
# Protocol: In addition, the efficiency of liver transplantation was evaluated. Livers extracted from aged mice of Example 21-1, untreated and treated with LX-403, were transplanted into young 3-month-old mice, and the efficiency of liver transplantation was evaluated 3 days later through analysis of aging and liver damage markers. As a result, when treated with LX-403, the amount of p16, an aging-related marker of the liver after transplantation, and serum AST and ALT, liver damage markers, decreased compared to the control group. […] This improvement in transplantation efficiency was also confirmed when the livers extracted from aged mice were transplanted after removing senescent cells under ex vivo conditions, such as by culturing them in an LX-403-containing medium.
# [2] = system: non-senescent proliferating human cells; assay: Effect on non-senescent (proliferating) human cells; format: cell-based; settings: normally proliferating foreskin cells; 30 μM, 3 days
# Source text: Based on the results of Example 10 of WO2023-085787 A1, compounds that induce the death of senescent cells through a mechanism similar to LX-112, unlike existing senescent cell removers such as ABT-263, were screened based on HMGN1. […] The following test compounds were synthesized by and purchased from Medchemexpress, Selleckchem, Cayman, Medkoo, Sigma, Molport, Enzo, TCI, Santa Cruz, REONSIMI, Abcam, Alfa Aesar, APExBIO, BOCSCI, Merck, Thermo Fisher Scientific, R&D Systems, ChemFaces, Aobious, etc. […] In cells in which senescence was not induced by treatment with the control group (DMSO), the amount of HMGN1 above the effective value (sensitivity: 35 pg/ml), analysis limit, was not detected in both untreated and treated conditions with the test compound. On the other hand, in cells where senescence was induced by treatment with doxorubicin, the amount of HMGN1 was measured at 80 to 90 pg/ml. […]
# After 3 days, cell viability was measured using CellTiter-Glo Luminescent Cell Viability Assay (Promega) or light microscopy.
# Using the same method as Example 11, compounds that induce senescent cell death through a mechanism similar to that of LX-112 (ethaselen (1,2-[bis(1,2-benzisoselenazolone-3 (2H)-ketone)]ethane)) were screened based on HMGN1 and others. […] On the other hand, in cells senescent with doxorubicin, an amount of HMGN1 of […] was measured. […]
# [3] = system: doxorubicin-induced aged C57BL6J mice; assay: SA-β-gal staining in doxorubicin-aged mice, Example 22-3, Table 32; format: in vivo, mouse; settings: staining area, untreated aged = 100
# Protocol: Eight-week-old male C57BL6J mice (KRIBB Laboratory Animal Resource Center) were acclimated to the experimental environment for one week. Afterwards, the anticancer agent doxorubicin was administered intraperitoneally at a concentration of 10 mg/kg, inducing aging for more than 10 days. The aging-induced mice were randomly assigned to experimental and control groups. LX-403 was mixed with a 10% ethanol solution of PEG400 and administered orally at a concentration of 25 mg/kg or intradermally at a concentration of 1 μM for 21 days. LX-1801 was mixed in distilled water with 4% DMSO, 30% PEG300, and 5% Tween80 and administered intradermally at a concentration of 0.4 μM daily for 21 days. LX-2001 was mixed in PBS and administered intradermally at a concentration of 2 μM daily for 21 days. LX-2002 was mixed in distilled water with 4% DMSO, 30% PEG300, and 5% Tween80 and administered intradermally at a concentration of 2 μM daily for 21 days. […] LX-2005 was mixed in distilled water with 4% DMSO, 30% PEG300, and 5% Tween80 and administered intradermally at a concentration of 90 μM daily for 21 days. LX-2007 was mixed in distilled water with 4% DMSO, 30% PEG300, and 5% Tween80 and administered intradermally at a concentration of 90 μM daily for 21 days. […] LX-3002 was mixed in distilled water with 4% DMSO, 30% PEG300, and 5% Tween80 and administered orally at a concentration of 10 mg/kg daily for 21 days. […] LX-5411 was mixed in 5% phosphate-buffered saline (PBS) and administered orally at a concentration of 10 mg/kg daily for 21 days or intradermally at a concentration of 3 μM. LX-5701 was mixed in PBS and administered orally at a concentration of 360 mg/kg daily for 21 days. LX-6807 was mixed in saline and administered intraperitoneally at a concentration of 1 mg/kg daily for 21 days. The control group received only the solution in the same volume. After the end of drug administration, the methods described in each example below were performed.
# Mice were sacrificed as described in Example 7-3 of WO2023-085787 A1, and tissue sections were prepared from each organ tissue site and stained for the aging-related marker SA-β-gal.
# [4] = system: doxorubicin-induced aged C57BL6J mice; assay: Lipofuscin staining in muscle of doxorubicin-aged mice, Example 22-4, Table 33; format: in vivo, mouse; settings: staining area, untreated aged = 100
# Protocol: Eight-week-old male C57BL6J mice (KRIBB Laboratory Animal Resource Center) were acclimated to the experimental environment for one week. Afterwards, the anticancer agent doxorubicin was administered intraperitoneally at a concentration of 10 mg/kg, inducing aging for more than 10 days. The aging-induced mice were randomly assigned to experimental and control groups. LX-403 was mixed with a 10% ethanol solution of PEG400 and administered orally at a concentration of 25 mg/kg or intradermally at a concentration of 1 μM for 21 days. LX-1801 was mixed in distilled water with 4% DMSO, 30% PEG300, and 5% Tween80 and administered intradermally at a concentration of 0.4 μM daily for 21 days. LX-2001 was mixed in PBS and administered intradermally at a concentration of 2 μM daily for 21 days. LX-2002 was mixed in distilled water with 4% DMSO, 30% PEG300, and 5% Tween80 and administered intradermally at a concentration of 2 μM daily for 21 days. […] LX-2005 was mixed in distilled water with 4% DMSO, 30% PEG300, and 5% Tween80 and administered intradermally at a concentration of 90 μM daily for 21 days. LX-2007 was mixed in distilled water with 4% DMSO, 30% PEG300, and 5% Tween80 and administered intradermally at a concentration of 90 μM daily for 21 days. […]
smiles,measurement,setting,value
O=C(C(C[N+](=O)[O-])=NO)N1CCN(C(c2ccc(Cl)cc2)c2ccc(Cl)cc2)CC1 [LX-403],"p16 of transplanted liver, serum AST and ALT",[1]; 3 days after transplantation,decreased
same,efficiency of liver transplantation,"[1]; mouse, in vivo",improves the efficiency of long-term liver transplantation
COC(=O)c1ccc([C@H]2c3[nH]c4ccccc4c3C[C@H](C(=O)OC)N2C(=O)CCl)cc1 [LX-405],induced death of cells,[2],induced the death of most cells
O=C1C2CCN(CC2)C1CNC(=O)C(F)(F)F (centres unmarked) [LX-5701],"SA-β-gal (%), Kidney",[3]; Kidney,64 (±9.7) %
same,"SA-β-gal (%), Liver",[3]; Liver,43 (±14.2) %
same,"SA-β-gal (%), Lung",[3]; Lung,68 (±14.8) %
same,"SA-β-gal (%), eWAT",[3]; eWAT,66 (±10.5) %
same,"Lipofuscin (%), Muscle",[4],64 (±13.1) %
